Laboratory results published in patent US20250360210A1, “IMMUNOEFFECTOR CELLS DERIVED FROM INDUCED PLURIPOTENT STEM CELLS GENETICALLY ENGINEERED WITH MEMBRANE BOUND IL12 AND USES THEREOF” (Century Therapeutics, Inc., priority 2022, published 2025).

Target: T1, ADAM17 (Homo sapiens, UniProt P78536)
T1 construct: endogenous in cells; host or cells: iPSCs engineered with p1514 (ADAM17-cleavable membrane-tethered IL12 transgene at the AAVS1 locus)
Assay: Flow cytometry for IL12 on the surface of p1514-engineered iPSCs after incubation with TAPI-1
Assay type: cell-based
Settings: concentrations lower than 50 uM
Experimental: To confirm expression in cells engineered with the ADAM17 cleavable membrane tethered IL12 (p1514; FIG. 1B), the iPSCs were incubated with different concentrations of the ADAM17 inhibitor TAPI-1 and then analyzed by flow cytometry for IL12 detection on the surface of the engineered iPSCs.
Lower concentrations had no effect on cell health or tmIL12 detection)

T1 sequence (P78536 215-824): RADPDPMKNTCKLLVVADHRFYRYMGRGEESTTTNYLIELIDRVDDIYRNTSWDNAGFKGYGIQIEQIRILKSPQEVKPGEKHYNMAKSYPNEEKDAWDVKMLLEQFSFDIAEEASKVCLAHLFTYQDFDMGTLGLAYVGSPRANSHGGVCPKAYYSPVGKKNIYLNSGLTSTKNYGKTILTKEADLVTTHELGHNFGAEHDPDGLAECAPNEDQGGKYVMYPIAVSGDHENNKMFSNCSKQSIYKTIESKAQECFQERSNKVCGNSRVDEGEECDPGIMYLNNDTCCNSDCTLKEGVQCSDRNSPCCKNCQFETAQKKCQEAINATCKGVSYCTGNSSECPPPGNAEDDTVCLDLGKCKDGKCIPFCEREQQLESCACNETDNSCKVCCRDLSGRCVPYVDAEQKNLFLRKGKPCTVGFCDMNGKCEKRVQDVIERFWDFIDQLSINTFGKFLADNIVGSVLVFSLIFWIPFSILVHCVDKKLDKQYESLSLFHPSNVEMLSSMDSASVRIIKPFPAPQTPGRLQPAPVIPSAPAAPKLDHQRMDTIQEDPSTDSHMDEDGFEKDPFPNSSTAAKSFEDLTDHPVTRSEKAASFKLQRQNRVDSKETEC

- tmIL12 detection on surface of engineered iPSCs: no effect
- cell health (engineered iPSCs): no effect
Structure (SMILES): CC(C)C[C@H](CC(=O)NO)C(=O)N[C@@H](Cc1ccc2ccccc2c1)C(=O)N[C@@H](C)C(=O)NCCN [TAPI-1]
